Assay results: ChEMBL document CHEMBL5518234, “Structure-Guided Discovery of Potent and Selective CLK2 Inhibitors for the Treatment of Knee Osteoarthritis” (J Med Chem, 2024)
pIC50: −log10 of the molar value. One block for each molecule: values may come before it.

How the values were obtained:
[1] = target: Dual specificity protein kinase CLK3 (Homo sapiens, UniProt P49761)
Description: Inhibition of CLK3 (unknown origin) incubated for 10 mins in presence of ATP

[2] = target: TRAF2 and NCK-interacting protein kinase (Homo sapiens) (UniProt Q9UKE5); details: dose 100.0 nM
Description: Inhibition of TNIK (unknown origin) at 100 nM relative to control

[3] = target: T1, Dual specificity tyrosine-phosphorylation-regulated kinase 1A (Homo sapiens, UniProt Q13627); details: dose 100.0 nM
Description: Inhibition of DYRKIA (unknown origin) at 100 nM relative to control

[4] = target: Dual specificity tyrosine-phosphorylation-regulated kinase 1B (Homo sapiens) (UniProt Q9Y463); details: dose 100.0 nM
Description: Inhibition of DYRK1B (unknown origin) at 100 nM relative to control

[5] = target: T1, Dual specificity tyrosine-phosphorylation-regulated kinase 1A
Description: Inhibition of DYRK1A (unknown origin) incubated for 10 mins in presence of ATP

[6] = target: T2, Serine/arginine-rich splicing factor 6 (Rattus norvegicus) (UniProt G3V6S8); details: Chondrocyte, dose 10-100 nM, time 1.0 hrs
T2 sequence (whole entry): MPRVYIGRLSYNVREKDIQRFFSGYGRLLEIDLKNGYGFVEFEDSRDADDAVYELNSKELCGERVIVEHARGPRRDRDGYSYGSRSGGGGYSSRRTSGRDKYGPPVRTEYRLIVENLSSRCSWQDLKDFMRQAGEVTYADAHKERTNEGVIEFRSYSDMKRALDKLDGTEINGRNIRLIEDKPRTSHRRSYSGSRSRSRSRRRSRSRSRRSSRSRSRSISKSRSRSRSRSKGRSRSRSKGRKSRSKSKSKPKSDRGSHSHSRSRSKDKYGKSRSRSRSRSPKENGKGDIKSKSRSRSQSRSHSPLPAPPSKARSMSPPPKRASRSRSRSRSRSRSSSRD

[7] = target: T3, Dual specificity protein kinase CLK1 (Homo sapiens, UniProt P49759); details: dose 100.0 nM
Description: Inhibition of CLK1 (unknown origin) at 100 nM relative to control

[8] = target: Serine/threonine-protein kinase pim-3 (Homo sapiens) (UniProt Q86V86); details: dose 100.0 nM
Description: Inhibition of PIM3 (unknown origin) at 100 nM relative to control

[9] = target: T4, Dual specificity protein kinase CLK4 (Homo sapiens, UniProt Q9HAZ1)
Target sequence in this assay (Q9HAZ1 whole entry): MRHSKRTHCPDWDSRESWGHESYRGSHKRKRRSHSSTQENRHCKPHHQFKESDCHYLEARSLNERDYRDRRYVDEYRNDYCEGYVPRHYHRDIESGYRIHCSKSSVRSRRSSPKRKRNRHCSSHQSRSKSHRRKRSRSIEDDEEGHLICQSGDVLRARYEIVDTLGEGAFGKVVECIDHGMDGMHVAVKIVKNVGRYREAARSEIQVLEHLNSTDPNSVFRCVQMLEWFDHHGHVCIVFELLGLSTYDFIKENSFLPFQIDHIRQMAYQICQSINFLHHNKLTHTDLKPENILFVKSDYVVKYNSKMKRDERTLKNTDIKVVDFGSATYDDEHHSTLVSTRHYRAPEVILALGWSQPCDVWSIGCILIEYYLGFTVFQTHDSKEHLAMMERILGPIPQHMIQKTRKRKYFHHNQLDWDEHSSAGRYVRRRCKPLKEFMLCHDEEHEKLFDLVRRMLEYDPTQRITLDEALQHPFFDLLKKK
Description: Inhibition of CLK4 (unknown origin) incubated for 10 mins in presence of ATP

[10] = target: Receptor-type tyrosine-protein kinase FLT3 (Homo sapiens) (UniProt P36888); details: dose 100.0 nM
Description: Inhibition of FLT3 (unknown origin) at 100 nM relative to control

[11] = target: T3, Dual specificity protein kinase CLK1
Description: Inhibition of CLK1 (unknown origin) incubated for 10 mins in presence of ATP

[12] = target: T4, Dual specificity protein kinase CLK4; details: dose 100.0 nM
Target sequence in this assay (Q9HAZ1 whole entry, looked up): as the sequence (Q9HAZ1 whole entry) above
Description: Inhibition of CLK4 (unknown origin) at 100 nM relative to control

[13] = target: Homeodomain-interacting protein kinase 2 (Homo sapiens) (UniProt Q9H2X6); details: dose 100.0 nM
Description: Inhibition of HIPK2 (unknown origin) at 100 nM relative to control

[14] = target: Dual specificity protein kinase CLK2 (Homo sapiens, UniProt P49760)
Chain of Dual specificity protein kinase CLK2 (P49760 whole entry): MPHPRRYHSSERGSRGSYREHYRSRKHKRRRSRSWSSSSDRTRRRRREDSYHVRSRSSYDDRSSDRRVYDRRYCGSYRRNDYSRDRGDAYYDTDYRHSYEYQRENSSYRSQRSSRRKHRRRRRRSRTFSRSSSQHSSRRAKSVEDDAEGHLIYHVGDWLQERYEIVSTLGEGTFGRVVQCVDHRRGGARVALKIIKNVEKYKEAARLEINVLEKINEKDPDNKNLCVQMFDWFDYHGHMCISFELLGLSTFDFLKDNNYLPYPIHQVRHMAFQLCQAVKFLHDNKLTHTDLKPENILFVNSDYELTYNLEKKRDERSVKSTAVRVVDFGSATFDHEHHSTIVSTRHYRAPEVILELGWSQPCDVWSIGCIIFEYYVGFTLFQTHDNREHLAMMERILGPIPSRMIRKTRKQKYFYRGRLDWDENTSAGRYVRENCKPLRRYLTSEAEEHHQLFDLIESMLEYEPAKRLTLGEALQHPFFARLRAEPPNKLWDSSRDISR
Description: Inhibition of CLK2 (unknown origin) incubated for 10 mins in presence of ATP

Chain of Dual specificity protein kinase CLK3 (P49761 whole entry): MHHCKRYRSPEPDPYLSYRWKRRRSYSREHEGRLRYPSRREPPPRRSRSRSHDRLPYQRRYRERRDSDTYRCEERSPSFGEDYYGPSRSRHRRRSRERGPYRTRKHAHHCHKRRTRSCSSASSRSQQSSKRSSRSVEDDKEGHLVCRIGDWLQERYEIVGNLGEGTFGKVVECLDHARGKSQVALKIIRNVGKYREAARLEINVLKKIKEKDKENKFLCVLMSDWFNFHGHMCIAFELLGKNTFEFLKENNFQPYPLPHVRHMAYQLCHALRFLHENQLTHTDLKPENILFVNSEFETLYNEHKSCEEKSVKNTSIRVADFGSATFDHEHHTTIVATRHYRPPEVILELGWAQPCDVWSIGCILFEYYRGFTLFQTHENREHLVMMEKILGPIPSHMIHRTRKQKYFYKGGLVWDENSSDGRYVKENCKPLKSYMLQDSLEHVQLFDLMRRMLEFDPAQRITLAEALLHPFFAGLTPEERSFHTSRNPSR
Chain of TRAF2 and NCK-interacting protein kinase (Homo sapiens) (Q9UKE5 whole entry, looked up): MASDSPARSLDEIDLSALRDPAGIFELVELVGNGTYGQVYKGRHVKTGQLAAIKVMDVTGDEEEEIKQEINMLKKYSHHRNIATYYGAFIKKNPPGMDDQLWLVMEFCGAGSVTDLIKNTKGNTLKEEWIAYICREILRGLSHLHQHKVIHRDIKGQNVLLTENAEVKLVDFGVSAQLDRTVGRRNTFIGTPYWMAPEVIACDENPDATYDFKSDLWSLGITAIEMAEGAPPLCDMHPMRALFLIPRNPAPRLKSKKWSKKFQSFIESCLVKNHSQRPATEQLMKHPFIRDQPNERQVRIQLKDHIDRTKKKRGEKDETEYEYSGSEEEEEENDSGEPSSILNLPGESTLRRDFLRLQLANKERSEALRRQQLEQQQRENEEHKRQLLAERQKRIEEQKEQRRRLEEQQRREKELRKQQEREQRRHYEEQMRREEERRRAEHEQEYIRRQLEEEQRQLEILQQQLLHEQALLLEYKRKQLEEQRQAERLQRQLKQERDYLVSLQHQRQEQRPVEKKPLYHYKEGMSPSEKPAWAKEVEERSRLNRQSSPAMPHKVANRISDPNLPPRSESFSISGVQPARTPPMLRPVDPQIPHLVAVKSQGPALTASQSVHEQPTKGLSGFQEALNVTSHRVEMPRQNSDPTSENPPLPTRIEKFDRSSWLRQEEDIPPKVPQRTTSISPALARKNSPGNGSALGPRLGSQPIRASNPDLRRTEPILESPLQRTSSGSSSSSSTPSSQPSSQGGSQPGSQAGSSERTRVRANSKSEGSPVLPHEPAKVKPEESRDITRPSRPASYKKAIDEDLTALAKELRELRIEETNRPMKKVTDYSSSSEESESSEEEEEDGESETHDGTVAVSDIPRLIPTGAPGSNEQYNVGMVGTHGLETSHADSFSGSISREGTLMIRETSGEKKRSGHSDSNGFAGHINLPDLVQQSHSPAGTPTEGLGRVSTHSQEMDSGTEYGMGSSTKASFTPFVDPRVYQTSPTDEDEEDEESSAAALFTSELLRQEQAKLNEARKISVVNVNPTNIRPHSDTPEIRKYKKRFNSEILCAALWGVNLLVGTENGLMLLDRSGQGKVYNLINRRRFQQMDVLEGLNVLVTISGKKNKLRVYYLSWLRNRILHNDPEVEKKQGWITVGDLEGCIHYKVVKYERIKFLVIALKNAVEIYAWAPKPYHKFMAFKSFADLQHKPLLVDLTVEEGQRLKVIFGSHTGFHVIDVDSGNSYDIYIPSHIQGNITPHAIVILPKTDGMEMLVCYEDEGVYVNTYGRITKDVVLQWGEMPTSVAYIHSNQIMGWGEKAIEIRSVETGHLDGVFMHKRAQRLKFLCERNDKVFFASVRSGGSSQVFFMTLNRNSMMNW
Chain of Dual specificity tyrosine-phosphorylation-regulated kinase 1B (Homo sapiens) (Q9Y463 whole entry, looked up): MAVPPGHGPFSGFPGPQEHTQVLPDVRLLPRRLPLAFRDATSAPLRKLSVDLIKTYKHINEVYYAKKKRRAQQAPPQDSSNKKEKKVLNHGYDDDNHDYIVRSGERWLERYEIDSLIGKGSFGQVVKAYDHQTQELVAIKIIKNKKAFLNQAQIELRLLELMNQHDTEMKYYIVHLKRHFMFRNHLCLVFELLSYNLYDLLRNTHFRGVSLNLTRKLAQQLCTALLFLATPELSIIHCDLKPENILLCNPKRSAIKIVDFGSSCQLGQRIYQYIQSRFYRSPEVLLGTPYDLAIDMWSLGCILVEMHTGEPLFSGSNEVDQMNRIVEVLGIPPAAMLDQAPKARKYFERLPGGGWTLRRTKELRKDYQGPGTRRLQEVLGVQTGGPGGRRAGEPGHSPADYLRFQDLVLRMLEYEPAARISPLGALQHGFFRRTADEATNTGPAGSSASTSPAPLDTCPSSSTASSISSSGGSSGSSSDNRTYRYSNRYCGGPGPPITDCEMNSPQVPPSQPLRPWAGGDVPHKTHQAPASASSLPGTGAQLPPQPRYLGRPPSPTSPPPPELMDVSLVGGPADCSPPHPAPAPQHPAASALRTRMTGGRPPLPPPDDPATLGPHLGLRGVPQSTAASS
Chain of Homeodomain-interacting protein kinase 2 (Homo sapiens) (Q9H2X6 whole entry, looked up): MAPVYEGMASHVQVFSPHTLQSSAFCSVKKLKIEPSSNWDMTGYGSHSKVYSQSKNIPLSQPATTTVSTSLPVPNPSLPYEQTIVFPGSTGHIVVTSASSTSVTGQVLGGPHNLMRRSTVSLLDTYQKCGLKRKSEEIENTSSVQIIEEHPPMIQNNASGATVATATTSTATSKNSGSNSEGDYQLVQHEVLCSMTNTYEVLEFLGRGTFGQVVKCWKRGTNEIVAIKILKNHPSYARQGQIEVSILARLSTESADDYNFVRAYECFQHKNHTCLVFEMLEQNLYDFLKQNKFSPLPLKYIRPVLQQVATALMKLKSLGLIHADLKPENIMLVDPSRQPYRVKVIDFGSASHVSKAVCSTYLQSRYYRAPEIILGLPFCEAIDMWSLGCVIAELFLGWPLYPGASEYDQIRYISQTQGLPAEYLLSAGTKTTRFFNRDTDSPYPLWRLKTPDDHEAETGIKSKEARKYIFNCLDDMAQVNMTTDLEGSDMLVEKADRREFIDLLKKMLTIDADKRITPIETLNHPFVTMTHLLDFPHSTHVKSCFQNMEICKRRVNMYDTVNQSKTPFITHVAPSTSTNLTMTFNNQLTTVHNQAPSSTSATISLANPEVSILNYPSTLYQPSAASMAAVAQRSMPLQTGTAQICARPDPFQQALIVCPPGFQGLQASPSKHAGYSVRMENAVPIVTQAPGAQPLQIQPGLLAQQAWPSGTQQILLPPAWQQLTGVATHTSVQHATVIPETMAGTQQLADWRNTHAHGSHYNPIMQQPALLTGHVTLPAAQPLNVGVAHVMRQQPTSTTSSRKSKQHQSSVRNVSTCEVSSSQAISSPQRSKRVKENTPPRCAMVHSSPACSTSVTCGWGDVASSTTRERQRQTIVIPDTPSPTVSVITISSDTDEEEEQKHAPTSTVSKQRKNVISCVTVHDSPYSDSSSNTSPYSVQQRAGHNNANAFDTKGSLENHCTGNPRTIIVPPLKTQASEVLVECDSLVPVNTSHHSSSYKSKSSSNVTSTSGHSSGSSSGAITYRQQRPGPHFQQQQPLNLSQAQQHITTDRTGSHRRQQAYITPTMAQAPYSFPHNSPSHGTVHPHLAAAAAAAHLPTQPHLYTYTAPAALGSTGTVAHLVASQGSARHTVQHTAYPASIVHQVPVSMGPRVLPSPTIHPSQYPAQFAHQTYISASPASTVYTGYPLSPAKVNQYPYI

SMILES: CC(C)CC(=O)Nc1cncc(-c2ccc3[nH]nc(C#Cc4ccncc4)c3c2)c1
pIC50 [1]: < 7.00

SMILES: CC(C)CC(=O)Nc1cncc(-c2ccc3[nH]nc(C#Cc4ccc5cnccc5c4)c3c2)c1
pIC50 [1]: < 7.00

SMILES: CC(C)CC(=O)Nc1cncc(-c2ccc3[nH]nc(C#Cc4ccccc4Cl)c3c2)c1
pIC50 [1]: < 7.00

SMILES: CC(C)C[C@H](N)COc1cncc(-c2ccc3[nH]nc(C#Cc4ccsc4)c3c2)c1
inhibition [2]: 94.1% | inhibition [3]: 93.2% | inhibition [4]: 94.7% | pIC50 [1]: < 7.00 | pIC50 [5]: 7.66 | inhibition [6]: Dose-Dependent Effect | inhibition [7]: 97.2% | inhibition [8]: 92.4% | pIC50 [9]: 8.49 | inhibition [10]: 96% | pIC50 [11]: 7.68 | inhibition [12]: 94.4% | inhibition [13]: 93.1%

SMILES: Cc1[nH]nc2ccc(-c3cncc(OC[C@@H](N)CC(C)C)c3)cc12
pIC50 [14]: 7.91 | pIC50 [1]: < 7.00 | pIC50 [5]: 7.43

SMILES: CC(C)CC(=O)Nc1cncc(-c2ccc3[nH]nc(C#Cc4ccc(C=O)cc4)c3c2)c1
pIC50 [14]: 7.99 | pIC50 [1]: < 7.00

SMILES: CC(C)CC(=O)Nc1cncc(-c2ccc3[nH]nc(C#Cc4cccnc4)c3c2)c1
pIC50 [1]: 7.81

SMILES: C(#Cc1n[nH]c2ccc(-c3cncc(OCC4CCCN4)c3)cc12)c1ccsc1 (stereo not given)
pIC50 [14]: 8.00 | pIC50 [1]: < 7.00

SMILES: CC(C)CC(=O)Nc1cncc(-c2ccc3[nH]nc(C#CC4CC4)c3c2)c1
pIC50 [1]: < 7.00

Continued, values first:

pIC50 [1]: < 7.00
SMILES: CC(C)C[C@H](N)COc1cncc(-c2ccc3[nH]nc(C#Cc4cccc(F)c4)c3c2)c1

pIC50 [1]: < 7.00
SMILES: CC(C)CC(=O)Nc1cncc(-c2ccc3[nH]nc(C#Cc4ncccn4)c3c2)c1

pIC50 [1]: < 7.00
SMILES: CC(C)CC(=O)Nc1cncc(-c2ccc3[nH]nc(C#Cc4ccc5ccccc5n4)c3c2)c1

pIC50 [1]: < 7.00
SMILES: CC(C)C[C@H](N)COc1cncc(-c2ccc3[nH]nc(C#CC4CC4)c3c2)c1

pIC50 [1]: < 7.00
SMILES: CC(C)CC(=O)Nc1cncc(-c2ccc3[nH]nc(C#Cc4cccc(C(=O)O)c4)c3c2)c1
